Results from PubChem BioAssay (NCI).
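Protocol summary: plate cells (96-well), add compound at 5 concentrations, incubate 48 h, interpolate endpoints linearly. The concentration for full growth arrest is given as TGI.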

What was measured:
Assay in all cases: NCI tumour cell line growth inhibition, 48 h
UACC-257 melanoma = tested on: UACC-257 melanoma
TK-10 renal = tested on: TK-10 renal
HL-60(TB) leukemia = tested on: HL-60(TB) leukemia
KM12 colon = tested on: KM12 colon
786-0 renal = tested on: 786-0 renal
SK-MEL-2 melanoma = tested on: SK-MEL-2 melanoma
HCT-15 colon = tested on: HCT-15 colon
PC-3 prostate = tested on: PC-3 prostate
SR leukemia = tested on: SR leukemia
MDA-N = tested on: MDA-N
K-562 leukemia = tested on: K-562 leukemia
T-47D breast = tested on: T-47D breast
OVCAR-3 ovarian = tested on: OVCAR-3 ovarian
NCI-H226 lung = tested on: NCI-H226 lung
RXF 393 renal = tested on: RXF 393 renal
IGROV1 ovarian = tested on: IGROV1 ovarian
ACHN renal = tested on: ACHN renal
HCT-116 colon = tested on: HCT-116 colon
CCRF-CEM leukemia = tested on: CCRF-CEM leukemia
MDA-MB-435 = tested on: MDA-MB-435
A498 renal = tested on: A498 renal
MCF7 breast = tested on: MCF7 breast
A549 NSCLC = tested on: A549 NSCLC
HCC-2998 colon = tested on: HCC-2998 colon
NCI-H460 lung = tested on: NCI-H460 lung
SK-MEL-28 melanoma = tested on: SK-MEL-28 melanoma
SF-268 CNS = tested on: SF-268 CNS
UO-31 renal = tested on: UO-31 renal
HS 578T breast = tested on: HS 578T breast
DU-145 prostate = tested on: DU-145 prostate
NCI-H522 lung = tested on: NCI-H522 lung
SF-295 CNS = tested on: SF-295 CNS
HOP-62 NSCLC = tested on: HOP-62 NSCLC
CAKI-1 renal = tested on: CAKI-1 renal
SF-539 CNS = tested on: SF-539 CNS
OVCAR-5 ovarian = tested on: OVCAR-5 ovarian
MOLT-4 leukemia = tested on: MOLT-4 leukemia
NCI-H23 lung = tested on: NCI-H23 lung
SK-MEL-5 melanoma = tested on: SK-MEL-5 melanoma
UACC-62 melanoma = tested on: UACC-62 melanoma
M14 melanoma = tested on: M14 melanoma
HOP-92 NSCLC = tested on: HOP-92 NSCLC
EKVX NSCLC = tested on: EKVX NSCLC
SN12C renal = tested on: SN12C renal
COLO 205 colon = tested on: COLO 205 colon
MDA-MB-231 breast = tested on: MDA-MB-231 breast
U251 CNS = tested on: U251 CNS
SK-OV-3 ovarian = tested on: SK-OV-3 ovarian
BT-549 breast = tested on: BT-549 breast
SNB-19 CNS = tested on: SNB-19 CNS
RPMI-8226 leukemia = tested on: RPMI-8226 leukemia
OVCAR-4 ovarian = tested on: OVCAR-4 ovarian
NCI/ADR-RES ovarian = tested on: NCI/ADR-RES ovarian
HT29 colon = tested on: HT29 colon
MALME-3M melanoma = tested on: MALME-3M melanoma

With `CCCCN1C(=O)CS/C1=N/Nc1nc2c([nH]1)c(=O)n(C)c(=O)n2C` the TGI (UACC-257 melanoma) was > 100 µM, the TGI (TK-10 renal) was > 100 µM and the TGI (HL-60(TB) leukemia) was > 100 µM. For the same compound, the TGI (KM12 colon) was > 100 µM, the TGI (786-0 renal) was 41.7 µM and the TGI (SK-MEL-2 melanoma) was > 100 µM. For the same compound, the TGI (HCT-15 colon) was > 100 µM, the TGI (PC-3 prostate) was > 100 µM and the TGI (SR leukemia) was 38.1 µM. For the same compound, the TGI (MDA-N) was 36.6 µM, the TGI (K-562 leukemia) was > 100 µM and the TGI (T-47D breast) was > 100 µM. For the same compound, the TGI (OVCAR-3 ovarian) was > 100 µM, the TGI (NCI-H226 lung) was > 100 µM and the TGI (RXF 393 renal) was > 100 µM. For the same compound, the TGI (IGROV1 ovarian) was > 100 µM, the TGI (ACHN renal) was > 100 µM and the TGI (HCT-116 colon) was 29.3 µM. For the same compound, the TGI (CCRF-CEM leukemia) was 54.8 µM, the TGI (MDA-MB-435) was 40.7 µM and the TGI (A498 renal) was > 100 µM. For the same compound, the TGI (MCF7 breast) was 31.3 µM, the TGI (A549 NSCLC) was > 100 µM and the TGI (HCC-2998 colon) was > 100 µM. The TGI (NCI-H460 lung) was > 100 µM, the TGI (SK-MEL-28 melanoma) was > 100 µM and the TGI (SF-268 CNS) was > 100 µM. The TGI (UO-31 renal) was > 100 µM, the TGI (HS 578T breast) was > 100 µM and the TGI (DU-145 prostate) was > 100 µM. For the same compound, the TGI (NCI-H522 lung) was > 100 µM, the TGI (SF-295 CNS) was 53.1 µM and the TGI (HOP-62 NSCLC) was > 100 µM. The TGI (CAKI-1 renal) was > 100 µM, the TGI (SF-539 CNS) was > 100 µM and the TGI (OVCAR-5 ovarian) was 59.4 µM. For the same compound, the TGI (MOLT-4 leukemia) was 64.7 µM, the TGI (NCI-H23 lung) was > 100 µM and the TGI (SK-MEL-5 melanoma) was > 100 µM. The TGI (UACC-62 melanoma) was > 100 µM, the TGI (M14 melanoma) was > 100 µM and the TGI (HOP-92 NSCLC) was > 100 µM. The TGI (EKVX NSCLC) was > 100 µM, the TGI (SN12C renal) was > 100 µM and the TGI (COLO 205 colon) was > 100 µM. For the same compound, the TGI (MDA-MB-231 breast) was > 100 µM, the TGI (U251 CNS) was > 100 µM and the TGI (SK-OV-3 ovarian) was > 100 µM. For the same compound, the TGI (BT-549 breast) was > 100 µM, the TGI (SNB-19 CNS) was > 100 µM and the TGI (RPMI-8226 leukemia) was > 100 µM. The TGI (OVCAR-4 ovarian) was 71.4 µM, the TGI (NCI/ADR-RES ovarian) was > 100 µM and the TGI (HT29 colon) was > 100 µM. The TGI (MALME-3M melanoma) was > 100 µM.
